Test results as given in patent publication US9029531B2 (Agios Pharmaceuticals, Inc., priority 2012, dated 2015).

Each compound was assayed against T1, glutaminase (GAC) (Homo sapiens, UniProt O94925) (assay: Glutaminase coupled endpoint enzymatic assay (Example A)). Conditions: inhibition of glutaminase; assay of Example A or Example B.
T1 sequence (O94925 55-598 isoform O94925-3 limits assumed): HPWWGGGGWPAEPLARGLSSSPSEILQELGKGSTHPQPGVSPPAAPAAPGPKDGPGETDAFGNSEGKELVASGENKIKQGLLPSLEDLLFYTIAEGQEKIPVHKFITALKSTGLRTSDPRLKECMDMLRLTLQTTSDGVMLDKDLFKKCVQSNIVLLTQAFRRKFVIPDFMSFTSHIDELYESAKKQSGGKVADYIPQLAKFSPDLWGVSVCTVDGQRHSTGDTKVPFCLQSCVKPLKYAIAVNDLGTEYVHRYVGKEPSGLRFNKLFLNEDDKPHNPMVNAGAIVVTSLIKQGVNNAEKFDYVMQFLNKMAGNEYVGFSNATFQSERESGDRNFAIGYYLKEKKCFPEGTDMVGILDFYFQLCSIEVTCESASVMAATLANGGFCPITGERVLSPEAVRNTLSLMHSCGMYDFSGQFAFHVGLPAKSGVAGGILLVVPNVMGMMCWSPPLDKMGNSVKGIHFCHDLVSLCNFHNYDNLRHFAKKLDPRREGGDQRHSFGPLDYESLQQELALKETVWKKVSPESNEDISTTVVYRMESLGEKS
Format: biochemical
Excerpt: In certain embodiments, exemplary compounds of Formula I include the compounds described in Table 1 and in the Examples. A compound described herein may be tested for its ability to inhibit glutaminase, e.g., by an assay as described in the Examples. For simplicity, the inhibition activity of these compounds is represented as an IC50 tested in an assay of Example A or Example B in Table 1. […] “N/A” refers to compounds wherein the IC50 is unavailable.
In this example, the enzymatic activity of glutaminase is measured through a coupled endpoint assay. Glutamine and phosphate are supplied to GAC at a concentration equal to Km and AC50, respectively, and GAC concentration is adjusted to give a linear reaction for 60 minutes. The glutamate produced is converted to 2-OG by a kinetic excess of glutamate dehydrogenase. This second step is configured for 2×Km for NAD, since excess NAD is inhibitory. However, a kinetic excess of the third coupling enzyme, diaphorase, recycles NAD from NADH to keep the NAD concentration constant during the timecourse of the assay. Diaphorase, also supplied in kinetic excess, oxidizes NADH produced by GDH back to NAD with the concomitant reduction of rezasurin to the highly fluorescent resorufin. Resorufin in measured after the assay is stopped with SDS by Ex544/Em590. A reduction in the signal indicates inhibition of some component of the coupled enzyme system. Prospective hits are counterscreened against GDH/diaphorase alone to remove hits to the coupling enzyme system in a second assay.
2. Buffers • 2× Buffer (300 mM NaCl, 100 mM HEPES pH 8.5, 0.1% BSA, 0.5 mM EDTA, 100 mM sodium phosphate pH 8.5) • 5× Substrate Mix (1× Buffer final concentration, with 13 mM glutamine, 100 μM resazurin, 50 μg/ml diaphorase) • 1.2× Enzyme Mix (1× Buffer final concentration, with 0.875 μg/ml GAC, 1.56 mM NAD, 6.25 units/ml GDH) • Stop Mix (6% SDS in ddH2O) Reaction Procedure • 1. Add 1 μl compound in 100% DMSO • 2. Add 40 μl of Enzyme Mix and incubate for 60 minute at room temperature • 3. Add 10 μl of Substrate Mix to start reaction • 4. Stop reaction with 25 μl of 6% SDS and read Ex544 Em 590

| Structure (SMILES) | IC50 [nM] |
| --- | --- |
| CSCC(=O)Nc1nnc([C@H]2CCC[C@H](c3nnc(NC(=O)CSC)s3)C2)s1 [Compound 60, N,N′-(5,5′-((1S,3S)-cyclohexane-1,3-diyl)bis(1,3,4-thiadiazole-5,2-diyl))bis(2-(methylthio)acetamide)] | 500 to 1000 |
| O=C(Cc1cccnc1)Nc1nnc(C2CCCCC(c3nnc(NC(=O)Cc4cccnc4)s3)C2)s1 (centres unmarked) [Compound 126] | 100 to 500 |
| COc1nc(CC(=O)Nc2nnc([C@H]3CCC[C@H](c4nnc(NC(=O)Cc5csc(OC)n5)s4)C3)s2)cs1 [Compound 279, N,N′-(5,5′-((1S,3S)-cyclohexane-1,3-diyl)bis(1,3,4-thiadiazole-5,2-diyl))bis(2-(2-methoxythiazol-4-yl)acetamide)] | < 100 |
| O=C(Cc1cccnc1)Nc1nnc(C[C@H]2C[C@@H]2Cc2nnc(NC(=O)Cc3cccnc3)s2)s1 (racemic) [Compound 5, N,N′-(5,5′-(trans-cyclopropane-1,2-diylbis(methylene))bis(1,3,4-thiadiazole-5,2-diyl))bis(2-(pyridin-3-yl)acetamide)] | 100 to 500 |
| O=C(Cc1cc(N2CC(F)(F)C2)ccn1)Nc1nnc([C@H]2CCC[C@H](c3nnc(NC(=O)Cc4cc(N5CC(F)(F)C5)ccn4)s3)C2)s1 [Compound 258, N,N′-(5,5′-((1S,3S)-cyclohexane-1,3-diyl)bis(1,3,4-thiadiazole-5,2-diyl))bis(2-(4-(3,3-difluoroazetidin-1-yl)pyridin-2-yl)acetamide)] | 100 to 500 |
| O=C(Cc1ccccc1)Nc1nnc(C[C@H]2C[C@@H]2Cc2nnc(NC(=O)Cc3ccccc3)s2)s1 (racemic) [Compound 1, N,N′-(5,5′-(trans-cyclopropane-1,2-diylbis(methylene))bis(1,3,4-thiadiazole-5,2-diyl))bis(2-phenylacetamide)] | 100 to 500 |
| CC(=O)Nc1nnc([C@@H]2CCC[C@@H](c3nnc(NC(=O)Cc4ccccn4)s3)C2)s1 [Compound 26] | 100 to 500 |
| O=C(Cc1ccccc1)Nc1nnc([C@@H]2CC[C@H](c3nnc(NC(=O)Cc4ccccc4)s3)C2)s1 [Compound 18, N,N′-(5,5′-((1R,3S)-cyclopentane-1,3-diyl)bis(1,3,4-thiadiazole-5,2-diyl))bis(2-phenylacetamide)] | 1000 to 2000 |
| COc1cccc(CC(=O)Nc2nnc([C@H]3CCC[C@H](c4nnc(NC(=O)Cc5ccccn5)s4)C3)s2)c1 [Compound 81, 2-(3-methoxyphenyl)-N-(5-((1S,3S)-3-(5-(2-(pyridin-2-yl)acetamido)-1,3,4-thiadiazol-2-yl)cyclohexyl)-1,3,4-thiadiazol-2-yl)acetamide] | < 100 |
| CNc1cccc(CC(=O)Nc2nnc([C@H]3CCC[C@H](c4nnc(NC(=O)Cc5cccc(NC)c5)s4)C3)s2)c1 [Compound 264, N,N′-(5,5′-((1S,3S)-cyclohexane-1,3-diyl)bis(1,3,4-thiadiazole-5,2-diyl))bis(2-(3-(methylamino)phenyl)acetamide)] | < 100 |
| NCc1ccc(CC(=O)Nc2nnc([C@H]3CCC[C@H](c4nnc(NC(=O)Cc5ccc(CN)cc5)s4)C3)s2)cc1 [Compound 246, N,N′-(5,5′-((1S,3S)-cyclohexane-1,3-diyl)bis(1,3,4-thiadiazole-5,2-diyl))bis(2-(4-(aminomethyl)phenyl)acetamide)] | < 100 |
| O=C(Cc1ccccc1)Nc1nnc([C@@H]2CC[C@@H](c3nnc(NC(=O)Cc4ccccc4)s3)C2)s1 [Compound 19, N,N′-(5,5′-((1R,3R)-cyclopentane-1,3-diyl)bis(1,3,4-thiadiazole-5,2-diyl))bis(2-phenylacetamide)] | 100 to 500 |
| COc1ccnc(CC(=O)Nc2nnc([C@@H]3CCC[C@@H](c4nnc(NC(=O)Cc5cc(OC)ccn5)s4)C3)s2)c1 [Compound 119] | < 100 |
| CN(C)c1ccc(CC(=O)Nc2nnc([C@H]3CCC[C@H](c4nnc(NC(=O)Cc5ccc(N(C)C)cn5)s4)C3)s2)nc1 [Compound 241, N,N′-(5,5′-((1S,3S)-cyclohexane-1,3-diyl)bis(1,3,4-thiadiazole-5,2-diyl))bis(2-(5-(dimethylamino)pyridin-2-yl)acetamide)] | < 100 |
| COc1cccc(CC(=O)Nc2nnc(C3CCC(c4nnc(NC(=O)Cc5cccc(OC)c5)s4)C3)s2)c1 (centres unmarked) [Compound 68] | 100 to 500 |
| COc1ccc(CC(=O)Nc2nnc([C@H]3CCC[C@H](c4nnc(NC(=O)Cc5ccc(OC)nc5)s4)C3)s2)cn1 [Compound 221, N,N′-(5,5′-((1S,3S)-cyclohexane-1,3-diyl)bis(1,3,4-thiadiazole-5,2-diyl))bis(2-(6-methoxypyridin-3-yl)acetamide)] | < 100 |
| COc1cc(CC(=O)Nc2nnc([C@H]3CCC[C@H](c4nnc(NC(=O)Cc5ccnc(OC)c5)s4)C3)s2)ccn1 [Compound 224, 2-(2-methoxypyridin-4-yl)-N-[5-[(1S,3S)-3-[5-[[2-(2-methoxypyridin-4-yl)acetyl]amino]-1,3,4-thiadiazol-2-yl]cyclohexyl]-1,3,4-thiadiazol-2-yl]acetamide] | < 100 |
| O=C(Cc1csc(N2CCOCC2)n1)Nc1nnc([C@H]2CCC[C@H](c3nnc(NC(=O)Cc4csc(N5CCOCC5)n4)s3)C2)s1 [Compound 276, N,N′-(5,5′-((1S,3S)-cyclohexane-1,3-diyl)bis(1,3,4-thiadiazole-5,2-diyl))bis(2-(2-morpholinothiazol-4-yl)acetamide)] | 100 to 500 |
| O=C(Cc1cccc(N2CCNCC2)c1)Nc1nnc([C@H]2CCC[C@H](c3nnc(NC(=O)Cc4cccc(N5CCNCC5)c4)s3)C2)s1 [Compound 263, N,N′-(5,5′-((1S,3S)-cyclohexane-1,3-diyl)bis(1,3,4-thiadiazole-5,2-diyl))bis(2-(3-(piperazin-1-yl)phenyl)acetamide)] | < 100 |
| O=C(Cc1ccccn1)Nc1nnc(CC2CC(Cc3nnc(NC(=O)Cc4ccccn4)s3)C2)s1 (centres unmarked) [Compound 7, N,N′-(5,5′-(cyclobutane-1,3-diylbis(methylene))bis(1,3,4-thiadiazole-5,2-diyl))bis(2-(pyridin-2-yl)acetamide)] | 2000 to 10000 |
| O=C(Cc1cccc(N2CC(F)(F)C2)n1)Nc1nnc([C@H]2CCC[C@H](c3nnc(NC(=O)Cc4cccc(N5CC(F)(F)C5)n4)s3)C2)s1 [Compound 268, N,N′-(5,5′-((1S,3S)-cyclohexane-1,3-diyl)bis(1,3,4-thiadiazole-5,2-diyl))bis(2-(6-(3,3-difluoroazetidin-1-yl)pyridin-2-yl)acetamide)] | < 100 |
| CCC(=O)Nc1nnc([C@H]2CCC[C@H](c3nnc(NC(=O)Cc4cccc(N5CC(F)(F)C5)n4)s3)C2)s1 [Compound 282, N-(5-((1S,3S)-3-(5-(2-(6-(3,3-difluoroazetidin-1-yl)pyridin-2-yl)acetamido)-1,3,4-thiadiazol-2-yl)cyclohexyl)-1,3,4-thiadiazol-2-yl)propionamide] | < 100 |
| O=C(Cc1ccc(N2CC(F)(F)C2)nc1)Nc1nnc([C@H]2CCC[C@H](c3nnc(NC(=O)Cc4ccc(N5CC(F)(F)C5)nc4)s3)C2)s1 [Compound 271, N,N′-(5,5′-((1S,3S)-cyclohexane-1,3-diyl)bis(1,3,4-thiadiazole-5,2-diyl))bis(2-(6-(3,3-difluoroazetidin-1-yl)pyridin-3-yl)acetamide)] | < 100 |
| COc1cccnc1CC(=O)Nc1nnc([C@H]2CCC[C@H](c3nnc(NC(=O)Cc4ncccc4OC)s3)C2)s1 (racemic) [Compound 116] | < 100 |
| O=C(Cc1ccccn1)Nc1nnc([C@@H]2CCC[C@H](c3nnc(NC(=O)Cc4ccccn4)s3)C2)s1 [Compound 102] | 100 to 500 |
| O=C(Cc1ccccn1)Nc1nnc([C@@H]2CCC[C@H](c3nnc(NC(=O)Cc4ccccn4)s3)C2)s1 [Compound 20, N,N′-(5,5′-((1R,3S)-cyclohexane-1,3-diyl)bis(1,3,4-thiadiazole-5,2-diyl))bis(2-(pyridin-2-yl)acetamide)] | 1000 to 2000 |
